Laboratory results from patent US5242945A, “Tetronic and thiotetronic acid derivatives as phospholipase A2 inhibitors” (American Home Products Corporation, priority 1991, dated 1993).

What was measured:
[1] = tested on: LTB4 biosynthesis in purified human neutrophils; assay: LTB4 biosynthesis in human polymorphonuclear neutrophils (in vitro phospholipase A2 assay); type: cell-based; conditions: Neutrophil, human PMN
Experimental: The compounds of the invention are tested in an in vitro phospholipase A2 assay to determine the ability of the compounds to inhibit the biosynthesis of platelet-activating factor and LTB4 in purified human neutrophils.
A leukocyte enriched blood sample obtained from a healthy donor is procured by leukophoresis using a Haemonetics model 30+ blood processor (Biological Specialties, Inc., Lansdale, Penn.). The top "platelet-rich" layer is removed after a low speed spin (35 xg, 15 min, 25° C.) of the sample. The remaining cell suspension is centrifuged (400 xg, 10 min, 25° C.) to sediment the remaining cells. The supernatant is discarded and the cell pellet resuspended in 120 ml HBSS (without Ca^++ /Mg^++). The cell suspension is subjected to ficoll-hypaque sedimentation (Histopaque 1077, 400 xg, 30 min, 25° C.). Contaminating erythrocytes are lysed by hypotonic shock (1 min). The cells are then washed once with 40 ml of HBSS and resuspended with HBSS (without Ca^++ /Mg^++) to a concentration of 2.5×10^7 cells/ml for further use. Greater than 95% purity is obtained, as assessed by microscopic examination.
One ml of human PMN (2.5×10^7 cells/ml) is incubated with vehicle or drugs (10 μl) for 10 minutes at 30° C. After preincubation, an equal volume of HBSS (1 ml) containing 2.4 mM CaCl2, 6 μM calcium ionophore A23187 and 50 μCi [^3 H]-acetate is then incubated at 30° C. for 15 minutes. An aliquot (100 μl) of the reaction mixture is taken out and mixed with 900 μl of 15% ethanol. LTB4 is extracted by using solid phase extraction on reverse phase C18 columns to remove excess [^3 H]-acetate and PAD. The C18 column is prewashed once with 2 ml of ethanol and water. The sample aliquot is acidified with 0.1N HCl to pH 3 before applying to the column. The column is then washed with 2 ml of water followed by 2 ml of 15% ethanol and 2 ml of petroleum ether to remove excess labeled acetate. The sample is eluted with 2 ml of ethyl acetate. The collected samples are dried with nitrogen and resuspended in 0.5 ml RIA buffer. The quantity of LTB4 in the sample is obtained from RIA determination. For PAF determination, the reaction is terminated by addition of 5 ml chloroform:methanol:acetic acid (2:1:0.04, v/v/v). [^3 H]-PAF is obtained by Bligh and Dyer extraction. The chloroform phase is removed and dried under nitrogen. The residue is redissolved in 75 μl of chloroform:methanol (80:20, v/v). [^3 H]-PAF is resolved from other phospholipids by TLC on RPC18 plates with a solvent system of chloroform:methanol:water (2:3:1, v/v/v) and is quantitated using a Berthold automated TLC linear analyzer.
Data presented are the mean +/- s.d. of the values relative to control A23187 stimulated cells for each experiment assayed in triplicate. Percent inhibition when used is calculated as:
% Inhibition=100-[(x.div.Control)×100].
Dose response analysis is performed by non-linear regression analysis for curve fitting and IC50 determination.

human platelet PLA2 = biological target: T1, human platelet PLA2 (Homo sapiens, UniProt P14555); assay: in vitro isolated phospholipase A2 assay, human platelet PLA2; type: biochemical; conditions: for inhibition at 10 µM: + values given without explanation, read-out: % Inhibition HP (human platelet); for IC50: Table IV, read-out: IC50 HP (human platelet)
T1 construct: platelet acid extract PLA2; from tissue; host or cells: human platelets, semipurified acid extract
T1 sequence (P14555 21-144): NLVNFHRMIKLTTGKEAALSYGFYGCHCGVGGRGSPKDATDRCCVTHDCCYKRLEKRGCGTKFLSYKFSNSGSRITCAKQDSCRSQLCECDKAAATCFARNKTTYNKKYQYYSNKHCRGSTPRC
Method in brief: (§1)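 PLA2 from semipurified human platelet acid extract or purified human synovial fluid, preincubated 30 min at room temperature with compound. ³H-arachidonate-labelled E. coli substrate then added in Tris-HCl pH 7.5, with enzyme giving about 12% hydrolysis. Reaction ran 10 min at 37° C; released arachidonic acid recovered on NH2 columns and measured by β-counting.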

[2] = biological target: T2, human synovial fluid PLA2 (Homo sapiens, UniProt P14555); assay: in vitro isolated phospholipase A2 assay, human synovial fluid PLA2; type: biochemical; conditions: for IC50: Table IV, read-out: IC50 HSF (human synovial fluid); for inhibition at 10 µM: + values given without explanation, read-out: % Inhibition HSF (human synovial fluid)
T2 construct: Purified human synovial fluid; from tissue; host or cells: human synovial fluid
T2 sequence (P14555 21-144): T1 sequence (P14555 21-144)
Method in brief: as §1

5-lipoxygenase (LTC4) = assay: resident murine peritoneal macrophage assay, LTC4; type: cell-based, mouse (Swiss Webster); conditions: for IC50: read-out: LTC4 zymosan IC50; for LTC4 AA % Inhibition: arachidonic acid stimulation
Experimental: The ability of the compounds of the invention to act as inhibitors of the enzymes 5-lipoxygenase and cyclooxygenase is measured in the resident murine peritoneal macrophage assay.
Resident peritoneal macrophages are collected from female Swiss Webster mice (49 days old, 20-25 gms, Buckshire) by lavaging with 7-8 ml Hanks Balanced Salt Solution (HBSS) without Ca^++ and Mg^++ (GIBCO). The lavage fluid from several mice is pooled and centrifuged at 4° C. for 10 minutes at 400 xg.
Residual serum and cellular debris are removed from the monolayers by washing 3× with 2 ml HBSS containing Ca^++ and Mg^++. Macrophages are preincubated for 5 minutes with 1 ml serum-free M199 containing 10 μl dimethyl sulfoxide (DMSO) vehicle or test compound prior to cell activation with zymosan ([…]) or arachidonic acid (AA) (2 μM). After 2 hours, the supernatants are removed and either assayed for LTC4 and PGE2 by radioimmunoassay (RIA) directly or stored at -20° C. In all cases, results are expressed as ng metabolite/4×10^6 cells.
Raw data (dpm) may be stored directly onto an "Autostart" tape using the HP85 in room C-096. The raw data are converted to ng metabolite/4-10^6cells using the standard curve by a "RIANAL" program (HP85) or a "NONLIN" program (HP9816). Results are then expressed as percent inhibition of zymosan induced, leukotriene or prostaglandin synthesis (control) using the equation: [formula]

[3] = Mus musculus, Peritoneal macrophage, zymosan stimulation

Row | Compound | inhibition at 10 µM [1] [%] | inhibition at 25 µM [1] [%] | inhibition at 10 µM (human platelet PLA2) [%] | IC50 [2] [µM] | inhibition at 10 µM [2] [%] | IC50 (5-lipoxygenase (LTC4); [3]) [µM] | inhibition at 50 µM [1] [%] | LTC4 AA % Inhibition (5-lipoxygenase (LTC4); dose 0.3 (unit not given)) [%] | IC50 (human platelet PLA2) [µM] | LTC4 AA % Inhibition (5-lipoxygenase (LTC4); dose 5 (unit not given)) [%] | LTC4 AA % Inhibition (5-lipoxygenase (LTC4); dose 1.0 (unit not given)) [%] | LTC4 AA % Inhibition (5-lipoxygenase (LTC4); dose 0.6 (unit not given)) [%] | LTC4 AA % Inhibition (5-lipoxygenase (LTC4); dose 0.5 (unit not given)) [%] | inhibition at 0.1 µM (5-lipoxygenase (LTC4); [3]) [%] | inhibition at 1 µM (5-lipoxygenase (LTC4); Mus musculus, Peritoneal macrophage, zymosan stimulation, 1.0 μM) [%] | inhibition at 0.5 µM (5-lipoxygenase (LTC4); [3]) [%]
1 | CCCCCCCCCC(=O)C1=C(O)COC1=O [Example 1, 4-Hydroxy-3-(1-oxodecyl)-2(5H)-furanone] | 37 | 46 | 14.9 | 10.8 | 35.1 | 2 | – | – | – | – | – | – | – | – | – | –
2 | CCCCCCCC/C=C\CCCCCCCC(=O)C1=C(O)COC1=O [Example 9, (Z)-4-Hydroxy-3-(1-oxo-9-octadecenyl)-2(5H)-furanone] | – | – | 18.5 | 1.1 | 97.3 | 0.2 | 100 | 8 | – | – | – | – | – | – | – | –
3 | CCCCC/C=C\C/C=C\CCCCCCCC(=O)C1=C(O)COC1=O [Example 14, (Z,Z)-4-Hydroxy-3-(1-oxo-9,12-octadecadienyl)-2(5H)-furanone] | 30 | -5 | 44 | 0.48 | 95 | – | – | – | 1.7 | 61 | – | – | – | – | – | –
4 | CC/C=C\C/C=C\C/C=C\CCCCCCCC(=O)C1=C(O)COC1=O [Example 15, (Z,Z,Z)-4-Hydroxy-3-(1-oxo-9,12,15-octadecatrienyl)-2(5H)-furanone] | – | – | 30 | – | 77.5 | 0.45 | 68 | – | – | – | – | – | – | – | – | –
5 | CCCCCCCCCCC/C=C\CCCCC(=O)C1=C(O)COC1=O [Example 18, (Z)-4-Hydroxy-3-(1-oxo-6-octadecenyl)-2(5H)-furanone] | – | 83 | 46 | – | 9 | 0.16 | – | -6 | – | – | – | – | – | – | – | –
6 | CCCCC/C=C\C/C=C\C/C=C\CCCCC(=O)C1=C(O)COC1=O [Example 20, (Z,Z,Z)-4-Hydroxy-3-(1-oxo-6,9,12-octadecatrienyl)-2(5H)-furanone] | – | – | 62 | – | 81 | 0.7 | 95 | – | – | – | -51 | – | – | – | – | –
7 | CCCCCC1CC1CC1CC1CCCCCCCC(=O)C1=C(O)COC1=O (centres unmarked) [Example 22, 4-Hydroxy-3-[1-oxo-8-[2-[(2-pentylcyclopropyl)methyl]cyclopropyl]octyl]-2(5H)-furanone] | 93 | 91 | 71 | 2.5 | 89.8 | 0.2 | – | – | 13.1 | – | – | – | – | – | – | –
8 | CCCC/C=C\CCCCCCCC(=O)C1=C(O)COC1=O [Example 25, 4-Hydroxy-3-((Z)-1-oxo-9-tetradecenyl)-2(5H)-furanone] | 74 | – | 58.3 | 33.4 | 28.8 | 0.25 | 97 | – | 26.7 | – | – | -4 | – | – | – | –
9 | O=C(CCCCCCC/C=C\c1ccc(Cl)cc1)C1=C(O)COC1=O [Example 35, 3-[(Z)-10-(4-chlorophenyl)-1-oxo-9-decenyl]-4-hydroxy-2(5H)-furanone] | 81.6 | – | 68.6 | 16 | 28.4 | 0.3 | 98.5 | – | 7.5 | – | – | – | – | – | – | –
10 | CCCCC/C=C\C/C=C\CCCCCCCC(=O)C1=C(O)CSC1=O [Example 46, 4-Hydroxy-3[(Z,Z)-1-oxo-9,12-octadecadienyl]-2(5H)-thiophenone] | – | – | 16.4 | – | 72 | 0.3 | 39 | – | – | – | – | – | -9 | – | – | –
11 | CCCCCCCC/C=C\CCCCCCCC(=O)C1=C(O)CSC1=O [Example 47, 4-Hydroxy-3-[(Z)-1-oxo-9-octadecenyl]-2(5H)-thiophenone] | – | – | 13.8 | – | 34.8 | 0.1 | 47 | 9 | – | – | – | – | – | 46.2 | – | –
12 | CCCC/C=C\CCCCCCCC(=O)C1=C(O)CSC1=O [Example 48, 4-Hydroxy-3-[(Z)-1-oxo-9-tetra-decenyl]-2(5H)-thiophenone] | – | 86 | 1.1 | – | 50.9 | – | – | -5 | – | – | – | – | – | 25.3 | 77.1 | –
13 | CCCCC/C=C\C/C=C\C/C=C\CCCCC(=O)C1=C(O)CSC1=O [Example 50, 4-Hydroxy-3-[(Z,Z,Z)-1-oxo-6,9,12-octadecatrienyl]-2(5H)-thiophenone] | – | 100 | 14.1 | – | 55.9 | – | – | – | – | – | – | – | -33 | 38.8 | – | 48.1
14 | CCCCCCCCCCC/C=C\CCCCC(=O)C1=C(O)CSC1=O [Example 51, 4-Hydroxy-3-[(Z)-1-oxo-6-octadecenyl]-2(5H)-thiophenone] | – | – | 15.2 | – | 29.4 | – | – | – | – | – | – | – | -4 | 21.1 | – | 59.4
